According to ChEMBL document CHEMBL1649185, “Antibacterial activity of ultrashort cationic lipo-beta-peptides” (2009):
≈ marks a conversion by molar mass, not a printed value. Square brackets hold non-standard residues; d marks the D form. Peptide text beside a SMILES is read from it. * marks the point of attachment. Palmitoyl = CCCCCCCCCCCCCCCC(=O)*; Lauroyl = CCCCCCCCCCCC(=O)*

How the values were obtained:
Assay type in all cases: functional
Staphylococcus aureus [1] = assay: Antimicrobial activity against methicillin-resistant Staphylococcus aureus ATCC 33592 […]
Staphylococcus aureus [2] = assay: Antimicrobial activity against Staphylococcus aureus ATCC 29213 […]
[3] = system: Stenotrophomonas maltophilia; assay: Antimicrobial activity against Stenotrophomonas maltophilia CAN-ICU 62584 […]
[4] = system: Staphylococcus epidermidis; assay: Antimicrobial activity against Staphylococcus epidermidis ATCC 14990 […]
Escherichia coli [5] = assay: Antimicrobial activity against Escherichia coli CAN-ICU 61714 […]
Pseudomonas aeruginosa [6] = assay: Antimicrobial activity against Pseudomonas aeruginosa CAN-ICU 62308 […]
Enterococcus faecalis = assay: Antimicrobial activity against Enterococcus faecalis ATCC 29212 […]
Pseudomonas aeruginosa [7] = assay: Antimicrobial activity against Pseudomonas aeruginosa ATCC 27853 […]
Klebsiella pneumoniae = assay: Antimicrobial activity against Klebsiella pneumoniae ATCC 13883 […]
Enterococcus faecium = assay: Antimicrobial activity against Enterococcus faecium ATCC 27270 […]
Streptococcus pneumoniae = assay: Antimicrobial activity against Streptococcus pneumoniae ATCC 49619 […]
Acinetobacter baumannii = assay: Antimicrobial activity against Acinetobacter baumannii CAN-ICU 63169 by […]
Escherichia coli [8] = assay: Antimicrobial activity against Escherichia coli ATCC 25922 by […]
Escherichia coli [9] = assay: Antimicrobial activity against Escherichia coli CAN-ICU 63074 […]
[10] = system: Staphylococcus epidermidis; assay: Antimicrobial activity against methicillin-resistant Staphylococcus epidermidis CAN-ICU 61589 […]

Compound | MIC (Staphylococcus aureus [1]) [µg/mL] | MIC (Staphylococcus aureus [2]) [µg/mL] | MIC [3] [µg/mL] | MIC [4] [µg/mL] | MIC (Escherichia coli [5]) [µg/mL] | MIC (Pseudomonas aeruginosa [6]) [µg/mL] | MIC (Enterococcus faecalis) [µg/mL] | MIC (Pseudomonas aeruginosa [7]) [µg/mL] | MIC (Klebsiella pneumoniae) [µg/mL] | MIC (Enterococcus faecium) [µg/mL] | MIC (Streptococcus pneumoniae) [µg/mL] | MIC (Acinetobacter baumannii) [µg/mL] | MIC (Escherichia coli [8]) [µg/mL] | MIC (Escherichia coli [9]) [µg/mL] | MIC [10] [µg/mL]
CCCCCCCCCCCC(=O)N[C@H](CCCN)CC(=O)N[C@@H](CC(=O)N[C@@H](CC(=O)N[C@H](CCCN)CC(=O)O)C(C)C)C(C)C | 32 (≈ 46.9 µM) | 32 (≈ 46.9 µM) | 256 (≈ 375 µM) | 16 (≈ 23.4 µM) | 64 (≈ 93.7 µM) | 128 (≈ 187 µM) | 64 (≈ 93.7 µM) | 128 (≈ 187 µM) | 256 (≈ 375 µM) | 32 (≈ 46.9 µM) | 128 (≈ 187 µM) | > 128 | 64 (≈ 93.7 µM) | 64 (≈ 93.7 µM) | 32 (≈ 46.9 µM)
CCCCCCCCCCCC(=O)N[C@@H](CCCCN)C(=O)N[C@@H](CC(C)C)C(=O)N[C@@H](CC(C)C)C(=O)N[C@@H](CCCCN)C(=O)O (Lauroyl-KLLK-OH) | 16 (≈ 23.4 µM) | 16 (≈ 23.4 µM) | > 256 | 16 (≈ 23.4 µM) | 128 (≈ 187 µM) | 128 (≈ 187 µM) | 32 (≈ 46.9 µM) | 128 (≈ 187 µM) | 256 (≈ 375 µM) | 16 (≈ 23.4 µM) | 128 (≈ 187 µM) | > 64 | 128 (≈ 187 µM) | 128 (≈ 187 µM) | 16 (≈ 23.4 µM)
CCCCCCCCCCCCCCCC(=O)N[C@@H](CCCCN)C(=O)N[C@@H](CCCCN)C(=O)N[C@@H](CCCCN)C(=O)N[C@@H](CCCCN)C(=O)O (Palmitoyl-KKKK-OH) | 16 (≈ 20.8 µM) | 32 (≈ 41.6 µM) | 256 (≈ 333 µM) | 4 (≈ 5.2 µM) | 16 (≈ 20.8 µM) | 256 (≈ 333 µM) | 16 (≈ 20.8 µM) | 64 (≈ 83.2 µM) | 256 (≈ 333 µM) | 16 (≈ 20.8 µM) | > 64 | 256 (≈ 333 µM) | 16 (≈ 20.8 µM) | 32 (≈ 41.6 µM) | 8 (≈ 10.4 µM)
CCCCCCCCCCCCCCCC(=O)N[C@@H](CCCCN)C(=O)NCC(=O)NCC(=O)N[C@@H](CCCCN)C(=O)O | 16 (≈ 25.5 µM) | 8 (≈ 12.8 µM) | 128 (≈ 204 µM) | 4 (≈ 6.38 µM) | 16 (≈ 25.5 µM) | 64 (≈ 102 µM) | 8 (≈ 12.8 µM) | 64 (≈ 102 µM) | 64 (≈ 102 µM) | 16 (≈ 25.5 µM) | 128 (≈ 204 µM) | 128 (≈ 204 µM) | 16 (≈ 25.5 µM) | 16 (≈ 25.5 µM) | 8 (≈ 12.8 µM)
CCCCCCCCCCCCCCCC(=O)N[C@@H](CCCCN)C(=O)N[C@@H](C)C(=O)N[C@H](C)C(=O)N[C@@H](CCCCN)C(=O)O (Palmitoyl-KA[dA]K-OH) | 32 (≈ 48.9 µM) | 8 (≈ 12.2 µM) | 128 (≈ 195 µM) | 4 (≈ 6.11 µM) | 32 (≈ 48.9 µM) | 64 (≈ 97.7 µM) | 16 (≈ 24.4 µM) | 64 (≈ 97.7 µM) | 128 (≈ 195 µM) | 8 (≈ 12.2 µM) | 128 (≈ 195 µM) | 128 (≈ 195 µM) | 32 (≈ 48.9 µM) | 32 (≈ 48.9 µM) | 8 (≈ 12.2 µM)
CCCCCCCCCCCCCCCC(=O)N[C@@H](CCCCN)C(=O)NCC(=O)NCC(=O)N[C@H](CCCCN)C(=O)O | 16 (≈ 25.5 µM) | 16 (≈ 25.5 µM) | 64 (≈ 102 µM) | 8 (≈ 12.8 µM) | 64 (≈ 102 µM) | 64 (≈ 102 µM) | 16 (≈ 25.5 µM) | 64 (≈ 102 µM) | 64 (≈ 102 µM) | 16 (≈ 25.5 µM) | 128 (≈ 204 µM) | 64 (≈ 102 µM) | 16 (≈ 25.5 µM) | 16 (≈ 25.5 µM) | 8 (≈ 12.8 µM)
CCCCCCCCCCCCCCCC(=O)N[C@H](CCCN)CC(=O)NCCC(=O)NCCC(=O)N[C@H](CCCN)CC(=O)O | 32 (≈ 48.9 µM) | 64 (≈ 97.7 µM) | > 128 | 8 (≈ 12.2 µM) | 64 (≈ 97.7 µM) | 128 (≈ 195 µM) | 32 (≈ 48.9 µM) | 256 (≈ 391 µM) | > 128 | 32 (≈ 48.9 µM) | > 64 | 256 (≈ 391 µM) | 64 (≈ 97.7 µM) | 64 (≈ 97.7 µM) | 16 (≈ 24.4 µM)
GENTAMICIN | 2 | 1 | > 512 | 0.25 | 128 | 128 | – | 8 | 0.25 | – | 4 | 128 | 1 | 8 | 32
CCCCCCCCCCCCCCCC(=O)N[C@H](CCCN)CC(=O)NCC(=O)NCC(=O)N[C@H](CCCN)CC(=O)O | 32 (≈ 51 µM) | 16 (≈ 25.5 µM) | 256 (≈ 408 µM) | 8 (≈ 12.8 µM) | 32 (≈ 51 µM) | > 64 | 32 (≈ 51 µM) | 64 (≈ 102 µM) | 128 (≈ 204 µM) | 32 (≈ 51 µM) | 128 (≈ 204 µM) | 128 (≈ 204 µM) | 32 (≈ 51 µM) | 32 (≈ 51 µM) | 16 (≈ 25.5 µM)
CCCCCCCCCCCC(=O)N[C@@H](CCCCN)C(=O)N[C@@H](CC(C)C)C(=O)N[C@H](CC(C)C)C(=O)N[C@@H](CCCCN)C(=O)O (Lauroyl-KL[dL]K-OH) | 16 (≈ 23.4 µM) | 16 (≈ 23.4 µM) | > 256 | 8 (≈ 11.7 µM) | 64 (≈ 93.7 µM) | 128 (≈ 187 µM) | 32 (≈ 46.9 µM) | 128 (≈ 187 µM) | > 64 | 32 (≈ 46.9 µM) | 64 (≈ 93.7 µM) | > 256 | 64 (≈ 93.7 µM) | 64 (≈ 93.7 µM) | 16 (≈ 23.4 µM)
CCCCCCCCCCCCCCCC(=O)N[C@@H](CCCCN)C(=O)N[C@@H](CCCCN)C(=O)N[C@H](CCCCN)C(=O)N[C@@H](CCCCN)C(=O)O (Palmitoyl-KK[dK]K-OH) | 16 (≈ 20.8 µM) | 16 (≈ 20.8 µM) | 256 (≈ 333 µM) | 4 (≈ 5.2 µM) | 32 (≈ 41.6 µM) | 256 (≈ 333 µM) | 32 (≈ 41.6 µM) | 32 (≈ 41.6 µM) | 256 (≈ 333 µM) | 16 (≈ 20.8 µM) | > 32 | 256 (≈ 333 µM) | 32 (≈ 41.6 µM) | 32 (≈ 41.6 µM) | 8 (≈ 10.4 µM)
CCCCCCCCCCCCCCCC(=O)N[C@H](CCCN)CC(=O)N[C@H](CCCN)CC(=O)N[C@H](CCCN)CC(=O)N[C@H](CCCN)CC(=O)O | 16 (≈ 20.8 µM) | 16 (≈ 20.8 µM) | 256 (≈ 333 µM) | 4 (≈ 5.2 µM) | 32 (≈ 41.6 µM) | 128 (≈ 166 µM) | 32 (≈ 41.6 µM) | 64 (≈ 83.2 µM) | 128 (≈ 166 µM) | 16 (≈ 20.8 µM) | 128 (≈ 166 µM) | 256 (≈ 333 µM) | 16 (≈ 20.8 µM) | 32 (≈ 41.6 µM) | 4 (≈ 5.2 µM)
CCCCCCCCCCCCCCCC(=O)N[C@@H](CCCCN)C(=O)N[C@@H](C)C(=O)N[C@@H](C)C(=O)N[C@@H](CCCCN)C(=O)O (Palmitoyl-KAAK-OH) | 16 (≈ 24.4 µM) | 16 (≈ 24.4 µM) | 128 (≈ 195 µM) | 8 (≈ 12.2 µM) | 16 (≈ 24.4 µM) | 64 (≈ 97.7 µM) | 16 (≈ 24.4 µM) | 32 (≈ 48.9 µM) | 128 (≈ 195 µM) | 8 (≈ 12.2 µM) | 128 (≈ 195 µM) | 128 (≈ 195 µM) | 16 (≈ 24.4 µM) | 16 (≈ 24.4 µM) | 8 (≈ 12.2 µM)
